Assay results from patent publication US4868183A, “N-pyrazinyl substituted P-aminophenols” (Otsuka Pharmaceutical Factory, Inc., priority 1986, dated 1989).

System: carrageenin-induced paw edema
Experiment: Anti-inflammatory activity: inhibition of carrageenin-induced paw edema in rats
Type: in vivo, rat (male, S.D. strain)
Conditions: Rattus norvegicus, po, 3 h, read-out: Inhibition percent of edema
Procedure: (1) Anti-inflammatory activity: inhibition of carrageenin-induced paw edema in rats The compound was tested for the above activity according to the method of C.A. Winter et al. [Proc. Soc. […] One hour after the test compound was orally given to the animal, 0.1 ml of 1% carrageenin solution was subcutaneously injected into the right footpad. The paw volume was measured 3 hours thereafter, and the resulting increase in the volume was calculated based on the volume before the injection of carrageenin solution. The percent inhibition was determined in comparison with the increase in the control group.

| Structure (SMILES) | inhibition in vivo at 5 mg/kg [%] |
| --- | --- |
| COc1ccc2c(c1)c(CC(=O)O)c(C)n2C(=O)c1ccc(Cl)cc1 [Indomethacin, reference compound] | 36 |

Same assay, conditions: Rattus norvegicus, po; 10 mg/kg p.o., 1 h before carrageenin; paw volume 3 h after; vs control; read-out: Inhibition percent of edema

| Structure (SMILES) | inhibition in vivo at 10 mg/kg [%] |
| --- | --- |
| CC(C)(C)c1cc(Nc2ncccn2)cc(C(C)(C)C)c1O [Compound 13, 2,6-di-tert-butyl-4-[(2-pyrimidinyl)amino]phenol] | 41 |

Same assay, conditions: Rattus norvegicus, po; 25 mg/kg p.o., 1 h before carrageenin; paw volume 3 h after; vs control; read-out: Inhibition percent of edema

| Structure (SMILES) | inhibition in vivo at 25 mg/kg [%] |
| --- | --- |
| Cc1ccc(Nc2cc(C(C)(C)C)c(O)c(C(C)(C)C)c2)nn1 [Compound 17, 2,6-di-tert-butyl-4-[(6-methyl-3-pyridazinyl)amino]phenol] | 36 |
| COc1ccc(Nc2cc(C(C)(C)C)c(O)c(C(C)(C)C)c2)nn1 [Compound 24, 2,6-di-tert-butyl-4-[(6-methoxy-3-pyridazinyl)amino]phenol] | 31 |
| CC(C)(C)c1cc(Nc2cncc[n+]2[O-])cc(C(C)(C)C)c1O [Compound 64, 2-N-(3,5-di-tert-butyl-4-hydroxyphenyl)aminopyrazine-1-oxide] | 31 |
| CC(C)(C)c1cc(Nc2ncc[nH]2)cc(C(C)(C)C)c1O [Compound 48] | 63 |
| CC(C)c1cc(Nc2cccnn2)cc(C(C)(C)C)c1O [Compound 10] | 35 |
| CC(C)(C)c1cc(Nc2ccnnc2)cc(C(C)(C)C)c1O [Compound 12, 2,6-di-tert-butyl-4-[(4-pyridazinyl)amino]phenol] | 29 |

Same assay, conditions: Rattus norvegicus, po; 50 mg/kg p.o., 1 h before carrageenin; paw volume 3 h after; vs control; read-out: Inhibition percent of edema

| Structure (SMILES) | inhibition in vivo at 50 mg/kg [%] |
| --- | --- |
| CC(C)(C)c1cc(Nc2ccncn2)cc(C(C)(C)C)c1O [Compound 14, 2,6-di-tert-butyl-4-[(4-pyrimidinyl)amino]phenol] | 30 |
| Cc1ccnc(Nc2cc(C(C)(C)C)c(O)c(C(C)(C)C)c2)n1 [Compound 18, 2,6-di-tert-butyl-4-[(4-methyl-2-pyrimidinyl)amino]phenol] | 36 |
| CC(C)(C)c1cc(Nc2cnccn2)cc(C(C)(C)C)c1O [Compound 1, 2,6-di-tert-butyl-4-pyrazinylaminophenol] | 37 |
| Cc1sccc1Nc1cc(C(C)(C)C)c(O)c(C(C)(C)C)c1 [Compound 61, 2,6-di-tert-butyl-4-[(2-methyl-3-thienyl)amino]phenol] | 25 |
| Cc1cc(Nc2cc(C(C)(C)C)c(O)c(C(C)(C)C)c2)no1 [Compound 50] | 12 |
| CC(C)(C)c1cc(Nc2nccnn2)cc(C(C)(C)C)c1O [Compound 59, 2,6-di-tert-butyl-4-[(1,2,4-triazin-3-yl)amino]phenol] | 37 |

Same assay, conditions: Rattus norvegicus, po; 100 mg/kg p.o., 1 h before carrageenin; paw volume 3 h after; vs control; read-out: Inhibition percent of edema

| Structure (SMILES) | inhibition in vivo at 100 mg/kg [%] |
| --- | --- |
| CC(C)(C)c1cc(Nc2cncnc2)cc(C(C)(C)C)c1O [Compound 15] | 16 |
| CC(C)(C)c1cc(Nc2cc[nH]n2)cc(C(C)(C)C)c1O [Compound 34, 2,6-di-tert-butyl-4-(3-pyrazolylamino)phenol] | 65 |
| CC(C)(C)c1cc(Nc2c[nH]nn2)cc(C(C)(C)C)c1O [Compound 51, 2,6-di-tert-butyl-4-[(1,2,3-triazol-4-yl)amino]phenol] | 42 |
| CCOc1ccc(Nc2cc(C(C)(C)C)c(O)c(C(C)(C)C)c2)nn1 [Compound 28, 2,6-di-tert-butyl-4-[(6-ethoxy-3-pyridazinyl)amino]phenol] | 33 |
| CC(C)(C)c1cc(Nc2nc(-c3ccccc3)ns2)cc(C(C)(C)C)c1O [Compound 56, 2,6-di-tert-butyl-4-[(3-phenyl-1,2,4-thiadiazol-5-yl)amino]phenol] | 13 |
| Cn1nccc1Nc1cc(C(C)(C)C)c(O)c(C(C)(C)C)c1 [Compound 39, 2,6-di-tert-butyl-4-[(2-methyl-3-pyrazolyl)amino]phenol] | 46 |
| CC(C)(C)c1cc(Nn2cnnc2)cc(C(C)(C)C)c1O [Compound 55, 2,6-di-tert-butyl-4-[(1,2,4-triazol-4-yl)amino]phenol] | 23 |
| CC(C)(C)c1cc(Nc2ncco2)cc(C(C)(C)C)c1O [Compound 49, 2,6-di-tert-butyl-4-[(2-oxazolyl)amino]phenol] | 41 |
| CC(C)(C)c1cc(Nc2cncc(Cl)n2)cc(C(C)(C)C)c1O [Compound 25] | 15 |
| Cc1nnc(Nc2cc(C(C)(C)C)c(O)c(C(C)(C)C)c2)s1 [Compound 58, 2,6-di-tert-butyl-4-[(5-methyl-1,3,4-thiadiazol-2-yl)amino]pheonl] | 30 |
| Cc1cnc(Nc2cc(C(C)(C)C)c(O)c(C(C)(C)C)c2)cn1 [Compound 16] | 10 |
| CC(C)(C)c1cc(Nc2cc(Cl)nnc2Cl)cc(C(C)(C)C)c1O [Compound 27, 2,6-di-tert-butyl-4-[(3,6-dichloro-4-pyridazinyl)amino]pheonl] | 33 |
| CC(C)(C)c1cc(Nc2ccc(Cl)nn2)cc(C(C)(C)C)c1O [Compound 26, 2,6-di-tert-butyl-4-[(6-chloro-3-pyridazinyl)amino]phenol] | 27 |
| CC(C)(C)c1cc(Nc2cncnc2N)cc(C(C)(C)C)c1O [Compound 22, 2,6-di-tert-butyl-4-[(4-amino-5-pyrimidinyl)amino]phenol] | 32 |
| CC(C)(C)c1cc(Nc2nnc[nH]2)cc(C(C)(C)C)c1O [Compound 54] | 20 |
| CC(C)(C)c1cc(Nc2cccnn2)cc(C(C)(C)C)c1O [Compound 11, 2,6-di-tert-butyl-4-[(3-pyridazinyl)amino]phenol] | 62 |
| CC(C)c1cc(Nc2cnccn2)cc(C(C)(C)C)c1O [Compound 4, 2-isopropyl-6-tert-butyl-4-pyrazinylaminophenol] | 39 |
| CC(C)(C)c1cc(Nc2ccc(CO)nn2)cc(C(C)(C)C)c1O [Compound 33, 2,6-di-tert-butyl-4-[(6-hydroxymethyl-3-pyridazinyl)amino]phenol] | 46 |
